Data set [1] relates to adenomas of APC^min mice. Put plainly: Oral DAPT treatment of APC^min mice, histology of intestinal adenomas. It counts as in vivo, mouse. Conditions: DAPT 100 mg/kg orally once daily. How it is done: The intestinal tract was dissected as a whole and flushed gently with cold PBS to remove any fecal content followed by a flush with Formalin. The small intestine was rolled up into a compact circle and fixed in Formalin at room temperature for 16 hours. The tissues were sectioned (2 to 6 μm). Following dewaxing and hydration, sections were pretreated with peroxidase blocking buffer (120 mM Na2HPO4, 43 mM citric acid, 30 mM NaN3, 0.2% H2O2; pH 5.8) for 15 minutes at room temperature. Antigen retrieval was performed by boiling samples in Na-citrate buffer (10 mM, pH 6.0). After 20 minutes, the boiling pan was allowed to slowly cool down to room temperature. Incubation of antibodies was performed in BSA in PBS overnight at 4° C. and at room temperature for one hour for Lysozyme, Ki67. In all cases, the Envision^+ kit (DAKO) was used as a secondary reagent. The incubation time was 30 minutes. Stainings were developed using DAB. Slides were then counterstained with hematoxylin and mounted. The probes used for in situ hybridization are as described (Schroder et al. 2002). Following dewaxing and hydration, tissues were incubated for five minutes in Alcian Blue (1% in 0.5% acetic acid). Subsequently washed in water, one minute incubated in Neutral Red. Quickly dehydrated, washed in Xylene and mounted with Pertex. The eight-week-old APC^min mice were treated with two different, orally deliverable γ-secretase inhibitors (DAPT: 100 mg/kg in corn oil) for 2.5, 6.5 or 15 days, after which their intestines were isolated and examined histologically. We then asked whether Notch pathway activity was essential for the maintenance of the undifferentiated, proliferative phenotype of adenoma cells. We elected to inhibit the Notch pathway pharmacologically through the use of the γ-secretase inhibitor DAPT. We then initiated treatment of fifteen-week-old APC^min mice that at this age carry 30 to 60 macroscopically detectable adenomas or polyps in the small intestine and one to three adenomas in the colon. The mice were treated with DAPT for up to 15 days, after which their intestines were examined histologically. Based on a pilot experiment and published treatment regimens, the APC^min mice were orally dosed once daily with DAPT at 100 mg/kg in maize oil.

Data set [2] concerns the target γ-secretase. Nature of the data set: IC50 of γ-secretase inhibitors, assay not stated. From the text: DAPT, DBZ or BZ are both effective in inducing the formation of a post-mitotic cell from an adenoma and/or adenocarcinoma cell and these compounds thus have a similar effect in a method according to the invention.

These results are taken from patent US20100292165A1, “Treatment of an intestinal adenoma and/or adenocarcinoma by inhibition of notch pathway activation” (Hubrecht Laboratorium a corporation of the Netherlands, priority 2004, published 2010).

Entries after “also recorded” stand apart in the source; their conditions may differ.

`CC(NC(=O)Cc1cc(F)cc(F)c1)C(=O)NC(C(=O)OC(C)(C)C)c1ccccc1` [DAPT, N—[N-(3,5-difluorophenylacetyl)-L-alanyl]-S-phenylglycine t-butyl ester]: in data set [1] (day 2.5 or day 6.5 of treatment), the effects in adenomas result is recorded as “No consistent effects”. Further, in data set [1] (day 15), the “Alcian Blue-positive goblet cells in adenomas” value is “increase in goblet cells; also recorded: Large foci of Alcian Blue-positive goblet cells had appeared” and the “proliferation in adjacent, normal crypts” value is “unaffected”. The “numbers of proliferating, Ki67-positive cells in adenomas” value in data set [1] (day 15, colon and small intestinal adenomas) is given as “strongly diminished; also recorded: dramatically decreased; also recorded: halted”. Besides, the 50% inhibitory concentration (IC50) (commonly the concentration that gives 50% inhibition) in data set [2] amounted to 10 nM.
